Consider 28 compounds from US10214779B2, “Method for identification of anti-HIV human miRNA mimics and miRNA inhibitors and anti-HIV pharmaceutical compounds” (CSIR, priority 2013, dated 2019).

pIC50: −log10 of the molar value. Counter-ions that a name gives are not always drawn. *1 amine or outer side, *2 acyl side, *3 side chain or, on linkers, in order; H or OH if unused. Where a SMILES comes first, the peptide text is derived from it. Bridges are numbered along the chain shown (N, C = ends). Roman numbers before positions name the chains, in order. [ ]: non-standard residue; d: D form. Actinocin(9to1) = Cc1c2oc3c(C)ccc(C(=O)[*:1])c3nc-2c(C(=O)[*:2])c(N)c1=O; NMeV = CN[C@H](C(=O)O)C(C)C; Sar = CNCC(=O)O

Broadly, the pIC50 is the IC50 on a negative log10 scale, so that one unit is a factor of ten.

Chain of Aurora B (Q96GD4 whole entry): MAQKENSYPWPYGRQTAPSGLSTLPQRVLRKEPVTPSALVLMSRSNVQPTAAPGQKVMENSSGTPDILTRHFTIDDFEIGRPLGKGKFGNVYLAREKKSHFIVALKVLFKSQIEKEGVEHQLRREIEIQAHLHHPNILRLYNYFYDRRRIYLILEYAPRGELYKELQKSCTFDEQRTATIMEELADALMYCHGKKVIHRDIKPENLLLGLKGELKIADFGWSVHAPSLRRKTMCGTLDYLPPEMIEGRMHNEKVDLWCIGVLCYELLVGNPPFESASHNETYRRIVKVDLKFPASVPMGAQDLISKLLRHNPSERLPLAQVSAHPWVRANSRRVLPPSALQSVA

The test system of one assay is HIV (Subtype B pseudoviral strain, PSGIII) in GHOST(3) cells. Briefly: Targeted drug screen, Clearance Screen (drug after HIV infection) in GHOST(3) cells. The class given is cell-based, HIV-1. As to conditions: infection MOI 0.5 for 48 hour, then drug 24 h, screened at 100 nM, 1 uM and 10 uM. The method, then: A library of 101 Food and Drug Administration (FDA) approved oncology drugs as well as a library of 192 kinase-inhibitor compounds were screened as potential anti-HIV therapeutics using the GHOST(3) reporter cell line. Drugs were screened at 3 different concentrations of 100 nM, 1 uM and 10 uM. Each library was screened in triplicate at each drug concentration and in the following 3 formats:
This screen format was utilised to identify drugs/compounds that were able to suppress HIV replication in host cells already infected by HIV or drugs/compounds that were able to selectively target HIV-infected cells for apoptosis. GHOST(3) cells were seeded in the wells of a 96 well plate 24 hour prior to infection with the Subtype B pseudoviral strain, PSGIII, at an MOI of 0.5. The infective media was then removed 48 hour post infection and replaced with normal culture media supplemented with a drug/compound at the appropriate concentration. Twenty-four hours post drug treatment, cells were processed for imaging as previously described.
This screen format was used as a control to identify drugs that were broadly cytotoxic. […] GHOST(3) cells were seeded in 96 well plates, 24 hr post seeding, drugs were added to culture medium at the required final concentration. Twenty-four hours post drug treatment cells were processed for imaging as described previously.
Subtype B viral stocks were produced by the dual transfection of HEK293T cells with a PSGIII (Subtype B) viral backbone plasmid which lacks an envelope/packaging protein and a second plasmid expressing an HIV-BAL viral envelope protein (Subtype B). Plasmid transfections were conducted using the FuGene 6 lipid-based transfection reagent (Promega) as per the manufacturer's guidelines. Viral titres were determined using a luciferase readout-assay based on the JC53 cell line and the TCID50 calculation method described by Reed and Muench (1938). GHOST(3) cells were exposed to virions at an MOI of 0.5 for both the miRNA and targeted drug/compound screens. Cells were infected in SFM supplemented with 1× Glutamax (Infecting media) as FBS has previously been described to negatively impact the infection efficiency of HIV.
Cells were washed twice in 1×PBS before fixation with a 3.7% Formaldehyde solution for 30 minutes at room temperature. Cells were washed once with 1× PBS before the addition of Hoechst Nuclear stain (Invitrogen) at 2 uM final concentration in 1×PBS for 30 minutes at room temperature. The Hoechst staining solution was aspirated and replaced with 50 uL of 1×PBS solution before imaging.
Four fields of view (100 um apart) were acquired from the central region of each well imaged. Images were acquired in the 405 and 488 fluorescent channels for each field of view. Wells were imaged using the 20× ewld objective on the Image Xpress Ultra automated confocal microscope system (Molecular Devices). The imaging parameters were kept constant for all replicates of both miRNA and targeted drug/compound screens.
Feature extraction algorithms were utilized in order to extract 16 subcellular measurements from the acquired images. These 16 factors are derived from 15 descriptors previously described by Genovesio et al. 2011 to be relevant indicators of the infective state of host cells, with addition of ‘infection efficiency’ as a descriptor of the percentage of infected cells per treatment well.
A bespoke support vector machine-learning (SVML) pattern recognition algorithm was trained to identify phenotypes of interest using the relevant control wells. […] The transfection of siCD4 and Raltegravir treatment were thus utilised in the miRNA and drug/compound screens respectively as positive controls for the inhibition of HIV-1 replication. […]
Take `Cc1[nH]nc2ccc(-c3cncc(OC[C@@H](N)Cc4ccccc4)c3)cc12` [A-674563]: the “Effect (Clearance Screen)” value is on record as “Suppressed HIV^b”.

Consider `N.N.[Cl][Pt][Cl]` [Cisplatin], for which the “Effect (Clearance Screen)” value was “Suppressed HIV^b”.

For `Cc1c2oc3c(C)ccc(C(=O)N[C@@H]4C(=O)N[C@H](C(C)C)C(=O)N5CCC[C@H]5C(=O)N(C)CC(=O)N(C)[C@@H](C(C)C)C(=O)O[C@@H]4C)c3nc-2c(C(=O)N[C@@H]2C(=O)N[C@H](C(C)C)C(=O)N3CCC[C@H]3C(=O)N(C)CC(=O)N(C)[C@@H](C(C)C)C(=O)O[C@@H]2C)c(N)c1=O` [Dactinomycin] (I: T[dV]P[Sar][NMeV] / II: T[dV]P[Sar][NMeV]; ester I:1-I:C, II:1-II:C; linker I:N-II:N via Actinocin(9to1)), the “Effect (Clearance Screen)” value was “Suppressed HIV^b”.

On to `C[C@@H](CN1CC(=O)NC(=O)C1)N1CC(=O)NC(=O)C1` [Dexrazoxane], for which the “Effect (Clearance Screen)” value is “Suppressed HIV^b”.

In the case of `CO[C@H]1C[C@@H]2CC[C@@H](C)[C@@](O)(O2)C(=O)C(=O)N2CCCC[C@H]2C(=O)O[C@H]([C@H](C)C[C@@H]2CC[C@@H](OCCO)[C@H](OC)C2)CC(=O)[C@H](C)/C=C(\C)[C@@H](O)[C@@H](OC)C(=O)[C@H](C)C[C@H](C)/C=C/C=C/C=C/1C` [Everolimus], the “Effect (Clearance Screen)” value is “Suppressed HIV^b”.

For the compound `O=P1(NCCCl)OCCCN1CCCl` (centres unmarked) [Ifosfamide], the “Effect (Clearance Screen)” value is “Suppressed HIV^b”.

In the case of `CCCS(=O)(=O)Nc1ccc(F)c(C(=O)c2c[nH]c3ncc(-c4ccc(Cl)cc4)cc23)c1F` [Vemurafenib], the “Effect (Clearance Screen)” value was “Suppressed HIV^b”.

For a further assay, the target named is T1, Aurora A (Homo sapiens, UniProt O14965).
T1 sequence (O14965 1-403): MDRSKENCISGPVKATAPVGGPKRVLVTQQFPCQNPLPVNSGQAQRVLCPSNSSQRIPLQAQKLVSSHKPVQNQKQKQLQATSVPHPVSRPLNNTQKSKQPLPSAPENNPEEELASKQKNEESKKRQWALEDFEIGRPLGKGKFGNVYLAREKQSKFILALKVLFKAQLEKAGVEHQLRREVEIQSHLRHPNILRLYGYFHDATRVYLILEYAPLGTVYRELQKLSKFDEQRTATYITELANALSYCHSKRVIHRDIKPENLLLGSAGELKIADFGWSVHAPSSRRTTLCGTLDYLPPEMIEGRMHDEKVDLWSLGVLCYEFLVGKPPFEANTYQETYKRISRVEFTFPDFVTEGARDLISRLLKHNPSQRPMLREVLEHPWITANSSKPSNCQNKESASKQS
Assay: not given
As to conditions: Aurora A; cited from earlier work.
For `CCN1CCN(C(=O)Cc2ccc(Nc3ncc(F)c(Nc4ccc(C(=O)Nc5ccccc5Cl)cc4)n3)cc2)CC1` [Aurora A inhibitor I], the pIC50 is 8.47.

The same assay, now with this note: Aurora B / Aurora A selectivity; cited from earlier work.
In the case of `CCN1CCN(C(=O)Cc2ccc(Nc3ncc(F)c(Nc4ccc(C(=O)Nc5ccccc5Cl)cc4)n3)cc2)CC1` [Aurora A inhibitor I], the B/A ratio is 1000.

Another assay has as its target Aurora B (Homo sapiens, UniProt Q96GD4).
Assay: not given
As to conditions: cited from earlier work.
`CCN1CCN(C(=O)Cc2ccc(Nc3ncc(F)c(Nc4ccc(C(=O)Nc5ccccc5Cl)cc4)n3)cc2)CC1` [Aurora A inhibitor I]: the negative logarithm of the IC50 (pIC50) is 5.47.

The next assay deals with p110γ (Homo sapiens, UniProt P48736).
Chain of p110γ (P48736 whole entry, species assumed): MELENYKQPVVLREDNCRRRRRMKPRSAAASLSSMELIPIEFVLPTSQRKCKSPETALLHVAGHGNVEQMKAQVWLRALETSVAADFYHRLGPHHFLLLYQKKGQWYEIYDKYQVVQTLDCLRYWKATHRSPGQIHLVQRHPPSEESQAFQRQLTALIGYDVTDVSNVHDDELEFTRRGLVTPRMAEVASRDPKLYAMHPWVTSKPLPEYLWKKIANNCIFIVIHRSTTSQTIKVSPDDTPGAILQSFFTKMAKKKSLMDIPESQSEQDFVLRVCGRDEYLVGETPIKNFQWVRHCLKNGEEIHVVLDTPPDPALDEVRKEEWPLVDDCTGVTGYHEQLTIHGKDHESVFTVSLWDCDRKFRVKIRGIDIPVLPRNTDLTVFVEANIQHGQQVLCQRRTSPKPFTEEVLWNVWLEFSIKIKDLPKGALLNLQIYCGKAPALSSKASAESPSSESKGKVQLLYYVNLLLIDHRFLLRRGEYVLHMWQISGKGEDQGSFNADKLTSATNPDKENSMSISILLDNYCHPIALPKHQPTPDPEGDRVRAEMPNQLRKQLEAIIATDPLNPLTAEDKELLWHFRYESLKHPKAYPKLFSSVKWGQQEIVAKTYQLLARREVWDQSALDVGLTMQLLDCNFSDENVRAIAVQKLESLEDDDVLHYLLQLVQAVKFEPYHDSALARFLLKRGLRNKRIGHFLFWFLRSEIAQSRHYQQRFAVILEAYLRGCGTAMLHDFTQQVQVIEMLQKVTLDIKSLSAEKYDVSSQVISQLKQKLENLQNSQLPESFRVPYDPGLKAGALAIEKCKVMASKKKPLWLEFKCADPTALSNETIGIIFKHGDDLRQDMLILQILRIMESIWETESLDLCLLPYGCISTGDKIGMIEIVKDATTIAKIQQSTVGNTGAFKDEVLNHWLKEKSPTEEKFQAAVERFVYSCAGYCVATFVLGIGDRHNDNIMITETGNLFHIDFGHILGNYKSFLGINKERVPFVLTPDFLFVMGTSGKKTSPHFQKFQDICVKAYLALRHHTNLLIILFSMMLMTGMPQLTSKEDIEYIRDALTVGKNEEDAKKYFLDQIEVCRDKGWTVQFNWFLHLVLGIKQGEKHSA
Assay: not given
As to conditions: cited from earlier work.
Regarding `Cc1ccc([N+](=O)[O-])cc1S(=O)(=O)N(C)/N=C/c1cnc2ccc(Br)cn12` [PIK-75], the pIC50 is 7.12.

The next assay relates to HIV (Subtype B pseudoviral strain, PSGIII) in GHOST(3) cells. Briefly: Targeted drug screen, Phenocopy Screen (drug before HIV infection) in GHOST(3) cells. As to conditions: 10 uM, added 24 hour prior to exposure to HIV.
Method: GHOST(3) cells were seeded in the wells of a 96 well plate 24 hour prior to addition of a specific oncology drug at the appropriate concentration. Twenty-four hours post drug treatment, the drug supplemented media was removed and replaced with infective media containing the Subtype B pseudoviral strain, PSGIII. Cells were infected at an MOI of 0.5. The infective media was removed 48 hour post infection and cells were processed for imaging as previously described (See Sample Preparation).
Four fields of view (100 um apart) were acquired from the central region of each well imaged. […] Wells were imaged using the 20× ewld objective on the Image Xpress Ultra automated confocal microscope system (Molecular Devices). The imaging parameters were kept constant for all replicates of both miRNA and targeted drug/compound screens.
`Cc1nnc(C(=O)NC(C)(C)c2nc(C(=O)NCc3ccc(F)cc3)c(O)c(=O)n2C)o1` [Raltegravir]: the “HIV replication (positive control phenotype)” value is reported as “suppressed HIV replication”.

Still in this assay, the particulars now being: drug 24 h before infection, MOI 0.5, 48 hour; screened at 100 nM, 1 uM and 10 uM; GHOST(3) cells.
`O=C(NC1CCNCC1)c1[nH]ncc1NC(=O)c1c(Cl)cccc1Cl` [AT7519]: the “Effect (Phenocopy Screen)” value is on record as “Toxic in response”.

Consider `CCN1CCN(C(=O)Cc2ccc(Nc3ncc(F)c(Nc4ccc(C(=O)Nc5ccccc5Cl)cc4)n3)cc2)CC1` [Aurora A inhibitor I], for which the “Effect (Phenocopy Screen)” value is on record as “Toxic in response”.

Take `COC(=O)c1ccc2c(c1)NC(=O)/C2=C(\Nc1ccc(N(C)C(=O)CN2CCN(C)CC2)cc1)c1ccccc1` [BIBF1120 (Vargatef)]: the “Effect (Phenocopy Screen)” value is given as “Suppressed HIV^a”.

For the compound `CC1(COc2ccc3c(c2)ncn3-c2ccc3cccc(N4CCC(N)CC4)c3n2)COC1` [Crenolanib (CP-868596), Crenolanib], the “Effect (Phenocopy Screen)” value was “Toxic in response”.

`C#Cc1cccc(Nc2ncnc3cc(OCCOC)c(OCCOC)cc23)c1` [Erlotinib hydrochloride]: the “Effect (Phenocopy Screen)” value is reported as “Toxic in response”.

`O=c1[nH]c(=O)n([C@H]2C[C@H](O)[C@@H](CO)O2)cc1F` [Floxuridine]: the “Effect (Phenocopy Screen)” value is reported as “Toxic in response”.

With `COc1cc2c(Oc3ccc(NC(=O)C4(C(=O)Nc5ccc(F)cc5)CC4)cc3F)ccnc2cc1OCCCN1CCOCC1` [Foretinib], the “Effect (Phenocopy Screen)” value was “Suppressed HIV^a”.

With `COc1ncc(-c2ccc3nccc(-c4ccnnc4)c3c2)cc1NS(=O)(=O)c1ccc(F)cc1F` [GSK2126458], the “Effect (Phenocopy Screen)” value is “Suppressed HIV^a”.

For `COc1cc2ncnc(Nc3ccc(F)c(Cl)c3)c2cc1OCCCN1CCOCC1` [Gefitinib], the “Effect (Phenocopy Screen)” value is “Toxic in response”.

As for `c1ccc2c(-c3cnn4cc(-c5ccc(N6CCNCC6)cc5)cnc34)ccnc2c1` [LDN193189], the “Effect (Phenocopy Screen)” value is reported as “Toxic in response”.

Regarding `Cc1ccc(C(=O)Nc2cccc(C(F)(F)F)c2)cc1Nc1nc(-c2cccnc2)nc2c1cnn2C` [NVP-BHG712], the “Effect (Phenocopy Screen)” value is reported as “Suppressed HIV^a”.

Consider `Cc1ccc([N+](=O)[O-])cc1S(=O)(=O)N(C)/N=C/c1cnc2ccc(Br)cn12` [PIK-75], for which the “Effect (Phenocopy Screen)” value is “Toxic in response”.

`Cc1ccc(C(=O)Nc2ccc(CN3CCN(C)CC3)c(C(F)(F)F)c2)cc1C#Cc1cnc2cccnn12` [Ponatinib]: the “Effect (Phenocopy Screen)” value is listed as “Suppressed HIV^a”.

As to `CC(C)(C)c1cnc(CSc2cnc(NC(=O)C3CCNCC3)s2)o1` [SNS-032 (BMS-387032)], the “Effect (Phenocopy Screen)” value is “Toxic in response”.

In the case of `CN1CCN(CCOc2cc(OC3CCOCC3)c3c(Nc4c(Cl)ccc5c4OCO5)ncnc3c2)CC1` [Saracatinib], the “Effect (Phenocopy Screen)” value is reported as “Suppressed HIV^a”.

As to `Cn1nnc2c(C(N)=O)ncn2c1=O` [Temozolomide], the “Effect (Phenocopy Screen)” value is listed as “Suppressed HIV^a”.

Take `O=C1CCC(N2C(=O)c3ccccc3C2=O)C(=O)N1` (centres unmarked) [Thalidomide]: the “Effect (Phenocopy Screen)” value is “Suppressed HIV^a”.

Regarding `CC[C@]1(O)C[C@H]2CN(CCc3c([nH]c4ccccc34)[C@@](C(=O)OC)(c3cc4c(cc3OC)N(C=O)[C@H]3[C@@](O)(C(=O)OC)[C@H](OC(C)=O)[C@]5(CC)C=CCN6CC[C@]43[C@@H]65)C2)C1` [Vincristine sulfate], the “Effect (Phenocopy Screen)” value was “Suppressed HIV^a”.

As to `O=C(CCCCCCC(=O)Nc1ccccc1)NO` [Vorinostat], the “Effect (Phenocopy Screen)” value is reported as “Toxic in response”.

For `C=CC(=O)Nc1cccc(Oc2nc(Nc3ccc(N4CCN(C)CC4)cc3OC)ncc2Cl)c1` [WZ4002], the “Effect (Phenocopy Screen)” value is “Suppressed HIV^a”.
